Legend:
Pancreatic CSCs = assay: cell viability, trypan blue, Vi-CELL analyzer; assay type: cell-based, human; settings: 3 days
Experimental: Pancreatic CSCs were treated with resveratrol (0-20 μM), curcumin (0-20 μM), honokiol (0-20 μM) and diallyl trisulphide (0-20 μM) for 3 days, and cell viability was measured by staining with trypan blue using Vi-CELL analyzer (Beckman Counter).
Pancreatic CSCs were treated with sulforaphane (0-20 μM), rottlerin (0-2 μM), EGCG (0-60 μM) and embelin (0-5 μM) for 3 days, and cell viability was measured by staining with trypan blue using Vi-CELL analyzer (Beckman Counter).
(A) Pancreatic CSCs were treated with SAHA (3 and 5 μM) and 5-Aza-dc (2 and 4 μM) and cell viability was measured at 48 h by staining with trypan blue using Vi-CELL analyzer (Beckman Counter). (B) Pancreatic CSCs were untreated (a) or treated with SAHA (b) or 5-Aza-dC (c) for 48 h, and apoptosis was measured by staining with annexin-PI using Accuri Flow Cytometer. (C) Caspase-3/7 activity was measured in pancreatic CSCs treated with SAHA (0.5 and 2 μM) or 5-Aza-dC (1 and 3 μM) for 25 h.
Pancreatic CSCs were treated with resveratrol (0-20 μM), curcumin (0-20 μM), honokiol (0-20 μM), and diallyl trisulphide (0-20 μM) for 3 days and cell viability was measured by staining with trypan blue using Vi-CELL analyzer. The results of those studies are illustrated in FIG. 27.
Pancreatic CSCs were treated with sulforaphane (0-20 μM), rottlerin (0-2 μM), EGCG (0-60 μM), and embelin (0-5 μM) for 3 days and cell viability was measured by staining with trypan blue using Vi-CELL analyzer. The results of those studies are illustrated in FIG. 28.
Pancreatic CSCs were treated with SAHA […] Vorinostat (3 and 5 μM) and 5-Aza-2′-deoxycytidine (5-Aza-dC, 2 and 4 μM) and cell viability was measured at 48 hours by staining with trypan blue using Vi-CELL analyzer. The results of those studies are illustrated in FIG. 31A.

Brain CSCs = assay: cell viability, trypan blue, Vi-CELL analyzer; assay type: cell-based; settings: 48 h
Experimental: Brain CSCs were treated with resveratrol (0-20 μM), curcumin (0-20 μM), honokiol (0-20 μM) and diallyl trisulphide (0-10 μM) for 3 days, and cell viability was measured by staining with trypan blue using Vi-CELL analyzer (Beckman Counter).
Brain CSCs were treated with sulforaphane (0-20 μM), rottlerin (0-1 μM), EGCG (0-40 μM) and embelin (0-5 μM) for 48 h, and cell viability was measured by staining with trypan blue using Vi-CELL analyzer (Beckman Counter).
Brain CSCs were treated with resveratrol (0-20 μM), curcumin (0-20 μM) honokiol (0-20 μM), and diallyl trisulphide (0-10 μM) for 3 days and cell viability was measured by staining with trypan blue using Vi-CELL analyzer. The results of those studies are illustrated in FIG. 23.
Brain CSCs were treated with sulforaphane (0-20 μM), rottlerin (0-1 μM), EGCG (0-40 μM), and embelin (0-5 μM) for 48 hours and cell viability was measured by staining with trypan blue using Vi-CELL analyzer. The results of those studies are illustrated in FIG. 24.

In the case of `O=C(O[C@@H]1Cc2c(O)cc(O)cc2O[C@@H]1c1cc(O)c(O)c(O)c1)c1cc(O)c(O)c(O)c1` [EGCG, epigallocatechin gallate], the cell viability (Pancreatic CSCs) is reported as “inhibit cell viability” and the cell viability (Brain CSCs) is reported as “inhibit cell viability”.
In the case of `CC(=O)c1c(O)c(C)c(O)c(Cc2c(O)c3c(c(C(=O)/C=C/c4ccccc4)c2O)OC(C)(C)C=C3)c1O` [rottlerin], the cell viability (Pancreatic CSCs) is reported as “inhibit cell viability” and the cell viability (Brain CSCs) is reported as “inhibit cell viability”.
In the case of `C[S+]([O-])CCCCN=C=S` (stereo not drawn) [sulforaphane], the cell viability (Pancreatic CSCs) is reported as “inhibit cell viability” and the cell viability (Brain CSCs) is reported as “inhibit cell viability”.
